In ChEMBL document CHEMBL3352633, “β-Lactam estrogen receptor antagonists and a dual-targeting estrogen receptor/tubulin ligand” (J Med Chem, 2014):
Calls of active or inactive are those of the source. The calls are words filed in the database; no cut-off is given here.

Legend:
[1] = biological target: T1, Estrogen receptor (Homo sapiens) (UniProt P03372); assay: Displacement of fluorescein-labeled estrogen from human recombinant ERalpha at 1 uM by fluorescence polarization based competitive binding affinity assay
T1 sequence (whole entry): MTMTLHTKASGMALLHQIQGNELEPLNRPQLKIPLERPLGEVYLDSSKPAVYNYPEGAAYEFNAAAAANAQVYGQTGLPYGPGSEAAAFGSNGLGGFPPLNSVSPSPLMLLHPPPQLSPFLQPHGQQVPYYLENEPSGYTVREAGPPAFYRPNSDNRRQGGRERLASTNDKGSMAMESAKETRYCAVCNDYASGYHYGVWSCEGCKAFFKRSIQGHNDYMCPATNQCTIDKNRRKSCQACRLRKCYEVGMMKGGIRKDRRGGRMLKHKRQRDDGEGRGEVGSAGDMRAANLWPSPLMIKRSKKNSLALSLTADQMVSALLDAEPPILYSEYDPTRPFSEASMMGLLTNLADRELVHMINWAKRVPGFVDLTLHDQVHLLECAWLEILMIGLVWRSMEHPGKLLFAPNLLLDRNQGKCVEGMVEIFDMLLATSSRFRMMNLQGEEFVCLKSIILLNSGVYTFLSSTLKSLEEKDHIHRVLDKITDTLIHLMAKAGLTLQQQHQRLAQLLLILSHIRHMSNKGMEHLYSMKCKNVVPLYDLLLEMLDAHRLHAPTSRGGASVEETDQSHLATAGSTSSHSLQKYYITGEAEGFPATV

[2] = tested on: MCF7; assay: cells; details: Homo sapiens, MCF7, 72 h
[3] = biological target: T2, Estrogen receptor beta (Homo sapiens, UniProt Q92731); assay: Displacement of fluorescein-labeled estrogen from human recombinant ERbeta at 1 uM by fluorescence polarization based competitive binding affinity assay
T2 sequence (Q92731 whole entry): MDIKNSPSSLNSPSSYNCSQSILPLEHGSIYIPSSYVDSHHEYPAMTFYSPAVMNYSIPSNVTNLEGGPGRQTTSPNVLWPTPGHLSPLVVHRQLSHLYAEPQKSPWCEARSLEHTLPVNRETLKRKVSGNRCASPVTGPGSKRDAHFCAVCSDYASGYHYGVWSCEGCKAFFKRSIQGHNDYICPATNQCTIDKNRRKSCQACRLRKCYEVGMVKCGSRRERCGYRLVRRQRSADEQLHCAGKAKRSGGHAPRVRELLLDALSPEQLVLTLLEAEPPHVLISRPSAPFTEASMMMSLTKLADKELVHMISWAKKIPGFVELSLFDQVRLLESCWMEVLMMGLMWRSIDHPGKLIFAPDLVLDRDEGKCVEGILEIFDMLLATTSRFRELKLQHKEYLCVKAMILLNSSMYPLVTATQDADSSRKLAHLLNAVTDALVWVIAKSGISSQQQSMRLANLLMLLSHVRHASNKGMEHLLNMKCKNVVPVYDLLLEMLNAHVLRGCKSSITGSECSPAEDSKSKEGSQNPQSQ

[4] = biological target: T3, Estrogen receptor (Homo sapiens, UniProt P03372)
T3 sequence (P03372 whole entry): T1 sequence (whole entry)
Description: (§1) Displacement of fluorescein-labeled estrogen from human recombinant ERalpha by fluorescence polarization based competitive binding affinity assay

[5] = biological target: T2, Estrogen receptor beta
Description: (§2) Displacement of fluorescein-labeled estrogen from human recombinant ERbeta by fluorescence polarization based competitive binding affinity assay

[6] = biological target: T3, Estrogen receptor; assay: Antagonist activity at human recombinant ERalpha by FRET assay
[7] = biological target: T1, Estrogen receptor (Homo sapiens); assay: Agonist activity at human recombinant ERalpha by FRET assay
[8] = biological target: T2, Estrogen receptor beta; remark: listed apart in the source
Description: as §2

[9] = tested on: MCF7; assay: Induction of cell cycle arrest in human MCF7 cells assessed as accumulation at G2/M phase at 10 uM after 24 hrs by propidium iodide staining based flow cytometry; format: functional
[10] = biological target: T3, Estrogen receptor; remark: listed apart in the source
Description: as §1

[11] = tested on: MCF7; assay: Induction of cell cycle arrest in human MCF7 cells assessed as increase in accumulation at sub-G1 phase at >10 nM after 24 hrs by propidium iodide staining based flow cytometry; format: functional
[12] = tested on: MCF7; assay: Reduction in Bcl-2 expression in human MCF7 cells at 10 uM after 48 hrs by SDS-PAGE and Western blot method; format: functional, cell-based
[13] = biological target: Tubulin (Homo sapiens) (UniProt P68371+Q9H4B7+P0DPH7+P68366+Q13509+Q71U36+P04350+Q3ZCM7+P07437+P68363+Q9BQE3+Q6PEY2+Q13885+Q9BVA1+Q9BUF5); assay: Induction of tubulin depolymerization in human MCF7 cells at 1 uM after 4 hrs by sedimentation assay and Western blotting method; format: cell-based
[14] = tested on: MCF7; assay: Reduction in Bcl-2 expression in human MCF7 cells at 10 uM after 72 hrs by SDS-PAGE and Western blot method; format: functional, cell-based
[15] = tested on: MCF7; assay: Induction of cell cycle arrest in human MCF7 cells assessed as accumulation at G2/M phase at 1 to 10 uM after 24 hrs by propidium iodide staining based flow cytometry; format: functional
[16] = tested on: MCF7; assay: Induction of cell cycle arrest in human MCF7 cells assessed as accumulation at subG1 phase at 1 to 10 uM after 72 hrs by propidium iodide staining based flow cytometry (reference value: 3.7%); format: functional
[17] = tested on: MCF7; assay: Induction of cell cycle arrest in human MCF7 cells assessed as accumulation at subG1 phase at 1 to 10 uM after 24 hrs by propidium iodide staining based flow cytometry; format: functional
[18] = tested on: MCF7; assay: Induction of cell cycle arrest in human MCF7 cells assessed as accumulation at subG1 phase at 1 to 10 uM after 48 hrs by propidium iodide staining based flow cytometry (reference value: 1.9%); format: functional
[19] = tested on: MCF7; assay: Reduction in Mcl-1 expression in human MCF7 cells at 10 uM after 72 hrs by SDS-PAGE and Western blot method; format: functional, cell-based
[20] = tested on: MCF7; assay: Induction of cell cycle arrest in human MCF7 cells assessed as increase in accumulation at sub-G1 phase at 1 to 10 uM after 24 hrs by propidium iodide staining based flow cytometry; format: functional
[21] = tested on: MCF7; assay: Induction of cell cycle arrest in human MCF7 cells assessed as accumulation at G2/M phase at >100 nM after 24 hrs by propidium iodide staining based flow cytometry; format: functional

SMILES | IC50 [2] | IC50 [4] | IC50 [5] | further results
O=C1[C@@H](C(O)c2ccc(O)cc2)[C@H](c2ccc(O)cc2)N1c1ccc(O)cc1 (stereo partly specified) | 49 µM |  |  | inhibition [1]: 40%; inhibition [3]: 43%
O=C1N(c2ccc(O)cc2)[C@@H](c2ccc(O)cc2)C1(c1ccccc1)c1ccccc1 | > 50 µM | 40 nM | 19 nM | 
O=C1[C@@H](c2ccc(O)cc2)[C@H](c2ccc(O)cc2)N1c1ccc(O)cc1 (relative stereo) | > 50 µM | 1100 nM | 4800 nM | IC50 [6]: 1400 nM; Activity [7]: inactive
COc1ccc([C@H]2[C@H](C(O)c3ccc(OCCN4CCCC4)cc3)C(=O)N2c2cc(OC)c(OC)c(OC)c2)cc1 (stereo partly specified) | 3.8 µM |  |  | IC50 [8]: Not Active; Activity [9]: Active; IC50 [10]: Not Active; Activity [11]: Active
COc1cc([C@H]2[C@H](c3ccc(O)cc3)C(=O)N2c2ccc(O)cc2)cc(OC)c1OC (relative stereo) | > 50 µM | 18000 nM | 144000 nM | 
COc1ccc([C@H]2[C@H](C(O)c3ccc(O)cc3)C(=O)N2c2cc(OC)c(OC)c(OC)c2)cc1 (stereo partly specified) | 0.21 µM | 8 nM | 15 nM | Activity [12]: Active; Activity [13]: Active; Activity [14]: Active; Activity [15]: Active; inhibition [1]: 93%; Activity [16]: 17%; Activity [17]: inactive; Activity [18]: 9.3%; inhibition [3]: 94%; Activity [19]: Active
O=C1[C@@H](c2ccccc2)[C@H](c2ccc(O)cc2)N1c1ccc(O)cc1 (relative stereo) | > 50 µM | 230 nM | 980 nM | 
O=C1[C@@H](Oc2ccccc2)[C@H](c2ccc(O)cc2)N1c1ccc(O)cc1 (relative stereo) | > 50 µM | 140 nM | 1200 nM | 
O=C1C[C@H](c2ccc(O)cc2)N1c1ccc(O)cc1 | > 50 µM | 13000 nM | 56000 nM | 
COc1ccc([C@H]2CC(=O)N2c2cc(OC)c(OC)c(OC)c2)cc1 |  |  |  | Activity [20]: Active; IC50 [8]: Not Active; Activity [21]: Active; IC50 [10]: Not Active
COc1ccc([C@H]2[C@H](C(O)c3ccc(O)cc3)C(=O)N2c2ccc(OC)cc2)cc1 (stereo partly specified) | 32 µM |  |  | inhibition [1]: 37%; inhibition [3]: 75%
O=C1[C@@H](c2ccc3ccccc3c2)[C@H](c2ccc(O)cc2)N1c1ccc(O)cc1 (relative stereo) | > 50 µM | 150 nM | 1100 nM | 
COc1ccc([C@@H]2[C@@H](c3ccc(C(O)c4ccc(OCCN5CCCC5)cc4)cc3)C(=O)N2c2ccc(OC)cc2)cc1 (stereo partly specified) | 4.63 µM |  |  | 
COC(=O)Nc1nc2cc(C(=O)c3cccs3)ccc2[nH]1 |  |  |  | Activity [13]: Active
COc1cc([C@@H]2C(=O)N(c3ccc(O)cc3)[C@H]2c2ccc(O)cc2)cc(OC)c1OC (relative stereo) | > 50 µM | 1470 nM | 23000 nM | 
